The values that follow come from ChEMBL document CHEMBL3991601, “The target landscape of clinical kinase drugs” (Science, 2017).

Activity calls are given as the source filed them. For most assays here, no stated cut-off is given here; in the data, actives have a measured Kd and inactives only a lower limit.

Experiment [1] concerns the target T1, Mitogen-activated protein kinase kinase kinase 3 (Homo sapiens, UniProt Q99759).
T1 sequence (Q99759 whole entry): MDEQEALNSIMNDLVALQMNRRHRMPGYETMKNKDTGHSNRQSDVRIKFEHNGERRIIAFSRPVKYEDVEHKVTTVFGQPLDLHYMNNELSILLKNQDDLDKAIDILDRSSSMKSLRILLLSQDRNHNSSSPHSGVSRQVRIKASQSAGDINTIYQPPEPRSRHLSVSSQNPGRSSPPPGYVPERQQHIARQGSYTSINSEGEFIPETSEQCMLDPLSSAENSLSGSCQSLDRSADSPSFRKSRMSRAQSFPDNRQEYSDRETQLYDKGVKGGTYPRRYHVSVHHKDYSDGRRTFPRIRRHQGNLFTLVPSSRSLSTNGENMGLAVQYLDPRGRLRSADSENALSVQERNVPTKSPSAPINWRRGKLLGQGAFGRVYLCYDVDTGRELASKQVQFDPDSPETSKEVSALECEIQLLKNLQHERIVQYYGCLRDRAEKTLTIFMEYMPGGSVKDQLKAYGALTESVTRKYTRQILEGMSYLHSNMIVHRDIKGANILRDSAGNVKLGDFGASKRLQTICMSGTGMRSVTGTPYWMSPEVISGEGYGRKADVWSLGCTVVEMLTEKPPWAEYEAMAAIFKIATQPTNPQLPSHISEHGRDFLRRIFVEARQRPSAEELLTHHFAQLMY

Experiment [2] deals with T2, Mitogen-activated protein kinase kinase kinase kinase 3 (Homo sapiens, UniProt Q8IVH8).
T2 sequence (Q8IVH8 whole entry): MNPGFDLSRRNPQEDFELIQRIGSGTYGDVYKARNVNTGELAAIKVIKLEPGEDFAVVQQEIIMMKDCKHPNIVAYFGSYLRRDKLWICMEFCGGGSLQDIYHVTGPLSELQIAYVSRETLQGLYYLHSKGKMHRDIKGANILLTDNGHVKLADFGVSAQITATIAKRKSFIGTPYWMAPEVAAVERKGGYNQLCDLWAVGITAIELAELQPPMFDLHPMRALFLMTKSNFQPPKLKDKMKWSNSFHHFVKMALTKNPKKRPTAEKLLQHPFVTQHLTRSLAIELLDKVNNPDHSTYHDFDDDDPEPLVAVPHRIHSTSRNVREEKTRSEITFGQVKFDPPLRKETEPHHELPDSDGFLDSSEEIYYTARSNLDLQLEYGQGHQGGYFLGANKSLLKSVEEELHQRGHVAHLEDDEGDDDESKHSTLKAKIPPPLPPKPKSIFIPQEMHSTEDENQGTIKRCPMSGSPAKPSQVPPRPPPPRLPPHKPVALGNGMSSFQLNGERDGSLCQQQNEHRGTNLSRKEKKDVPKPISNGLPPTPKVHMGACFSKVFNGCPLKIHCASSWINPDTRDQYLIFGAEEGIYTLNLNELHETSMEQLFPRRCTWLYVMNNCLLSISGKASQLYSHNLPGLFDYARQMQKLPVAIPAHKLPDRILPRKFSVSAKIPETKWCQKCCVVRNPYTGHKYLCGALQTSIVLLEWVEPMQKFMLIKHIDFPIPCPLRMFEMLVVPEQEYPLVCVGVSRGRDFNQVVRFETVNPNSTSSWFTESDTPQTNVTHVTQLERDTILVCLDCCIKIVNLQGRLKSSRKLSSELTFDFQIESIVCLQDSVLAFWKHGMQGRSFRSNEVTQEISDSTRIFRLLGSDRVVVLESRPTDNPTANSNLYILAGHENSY

Experiment [3] concerns the target Receptor-interacting serine/threonine-protein kinase 3 (Homo sapiens, UniProt Q9Y572).
For experiment [4], the target named is T3, Tyrosine-protein kinase Tec (Homo sapiens, UniProt P42680).
T3 sequence (P42680 whole entry): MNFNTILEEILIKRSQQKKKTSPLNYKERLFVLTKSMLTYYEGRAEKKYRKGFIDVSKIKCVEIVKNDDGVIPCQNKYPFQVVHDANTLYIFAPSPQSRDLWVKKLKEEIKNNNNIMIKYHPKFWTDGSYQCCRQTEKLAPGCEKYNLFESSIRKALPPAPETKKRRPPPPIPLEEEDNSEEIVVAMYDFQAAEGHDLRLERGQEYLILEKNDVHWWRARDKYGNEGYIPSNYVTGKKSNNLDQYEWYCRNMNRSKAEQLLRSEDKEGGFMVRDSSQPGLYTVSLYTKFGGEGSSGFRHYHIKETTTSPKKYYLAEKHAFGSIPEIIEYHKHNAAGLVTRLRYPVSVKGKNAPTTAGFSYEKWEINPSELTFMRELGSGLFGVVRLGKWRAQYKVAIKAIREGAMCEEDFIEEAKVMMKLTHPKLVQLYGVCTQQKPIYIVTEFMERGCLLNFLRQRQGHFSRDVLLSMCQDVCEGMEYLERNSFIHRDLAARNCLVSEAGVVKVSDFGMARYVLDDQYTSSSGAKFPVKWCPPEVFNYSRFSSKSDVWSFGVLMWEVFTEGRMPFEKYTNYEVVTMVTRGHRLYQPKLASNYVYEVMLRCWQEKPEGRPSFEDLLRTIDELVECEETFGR

In experiment [5] the target is Dual specificity testis-specific protein kinase 1 (Homo sapiens, UniProt Q15569).
Sequence of Dual specificity testis-specific protein kinase 1 (Q15569 whole entry): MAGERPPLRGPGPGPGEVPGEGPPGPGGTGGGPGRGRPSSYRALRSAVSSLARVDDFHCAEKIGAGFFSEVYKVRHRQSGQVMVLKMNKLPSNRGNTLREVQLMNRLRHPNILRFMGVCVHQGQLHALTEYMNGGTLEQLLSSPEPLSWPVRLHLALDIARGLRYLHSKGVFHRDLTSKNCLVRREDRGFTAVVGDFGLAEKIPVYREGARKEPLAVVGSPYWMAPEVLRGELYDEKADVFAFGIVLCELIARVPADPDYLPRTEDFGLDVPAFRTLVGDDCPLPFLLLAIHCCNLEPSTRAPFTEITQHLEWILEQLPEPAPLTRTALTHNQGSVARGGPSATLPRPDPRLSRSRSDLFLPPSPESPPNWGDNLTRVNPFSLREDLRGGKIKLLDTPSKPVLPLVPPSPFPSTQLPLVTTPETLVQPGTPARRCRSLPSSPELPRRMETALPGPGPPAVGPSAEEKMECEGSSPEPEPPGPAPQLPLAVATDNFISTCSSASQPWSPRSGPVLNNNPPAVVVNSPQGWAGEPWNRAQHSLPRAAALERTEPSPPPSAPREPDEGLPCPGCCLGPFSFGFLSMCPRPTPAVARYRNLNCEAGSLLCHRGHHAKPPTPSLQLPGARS
In experiment [6] the target is T4, Tyrosine--tRNA ligase, cytoplasmic (Homo sapiens, UniProt P54577).
T4 sequence (P54577 whole entry): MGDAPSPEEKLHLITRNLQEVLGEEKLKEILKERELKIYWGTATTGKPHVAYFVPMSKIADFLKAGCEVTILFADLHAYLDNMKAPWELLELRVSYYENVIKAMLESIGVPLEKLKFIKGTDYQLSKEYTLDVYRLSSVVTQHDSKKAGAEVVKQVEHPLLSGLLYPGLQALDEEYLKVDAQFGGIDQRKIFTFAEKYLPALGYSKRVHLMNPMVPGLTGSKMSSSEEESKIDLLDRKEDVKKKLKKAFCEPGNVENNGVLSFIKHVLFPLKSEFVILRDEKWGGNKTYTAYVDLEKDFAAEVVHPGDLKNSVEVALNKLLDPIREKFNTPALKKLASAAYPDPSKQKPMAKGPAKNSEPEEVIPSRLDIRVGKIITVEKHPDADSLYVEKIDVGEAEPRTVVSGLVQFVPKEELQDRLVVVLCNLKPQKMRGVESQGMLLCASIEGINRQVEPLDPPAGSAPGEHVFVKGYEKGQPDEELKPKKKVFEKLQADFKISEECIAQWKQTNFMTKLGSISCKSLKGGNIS

Sequence of Receptor-interacting serine/threonine-protein kinase 3 (Q9Y572 whole entry): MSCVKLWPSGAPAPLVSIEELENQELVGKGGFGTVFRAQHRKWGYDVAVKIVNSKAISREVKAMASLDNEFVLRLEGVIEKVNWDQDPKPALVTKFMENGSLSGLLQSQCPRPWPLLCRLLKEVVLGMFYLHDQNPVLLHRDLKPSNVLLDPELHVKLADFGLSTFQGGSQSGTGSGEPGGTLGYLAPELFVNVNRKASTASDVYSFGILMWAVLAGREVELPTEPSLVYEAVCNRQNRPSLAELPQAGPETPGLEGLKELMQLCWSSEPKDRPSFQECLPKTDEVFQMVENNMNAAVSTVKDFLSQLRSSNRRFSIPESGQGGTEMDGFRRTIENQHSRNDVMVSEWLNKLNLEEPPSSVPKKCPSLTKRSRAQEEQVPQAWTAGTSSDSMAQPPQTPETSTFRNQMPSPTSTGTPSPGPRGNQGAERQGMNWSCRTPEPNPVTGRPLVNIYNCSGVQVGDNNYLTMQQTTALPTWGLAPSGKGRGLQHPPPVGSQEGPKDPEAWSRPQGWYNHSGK

The Kd is the concentration at which binding is half-saturated. In the case of `C[C@@H](N)c1ccc(C(=O)Nc2ccnc3[nH]ccc23)cc1` [Y-39983], the Kd in experiment [1], in experiment [2], in experiment [3], in experiment [4], in experiment [5] and in experiment [6] was > 30 µM (inactive) in each case.
`CN1C/C=C/CCOc2cccc(c2)-c2ccnc(n2)Nc2cccc(c2)C1` [ZOTIRACICLIB]: the Kd was > 30 µM (inactive) in experiment [1]; 0.85 µM (active) in experiment [2]; > 30 µM (inactive) in experiment [3]; > 30 µM (inactive) in experiment [4]; > 30 µM (inactive) in experiment [5]; > 30 µM (inactive) in experiment [6].
